pIC50: −log10 of the molar value. Where two headings read alike, the source gives them in different places.
Tests used:
breast cancer cell lines = experiment: NCI-60 five-dose assay, breast cancer cell lines; type: cell-based, human; details: range over breast cancer cell lines
Protocol: (§1) A number of our most promising compounds identified through preliminary cell viability testing (23c, 23d, 23f, 23h, 23l, 23m, 23n, 23o, 24f, 24l, 25n and 26n) were selected for NCI drug screening in the 60-cell-line panel. The panel includes nine subcategories based on cancer tissue types, which include leukemia, ovarian, central nervous system, breast, lung, prostate, skin, renal and colon cancer. The compounds were initially assessed in a one-dose assay at a fixed treatment concentration of 10 µM. The compounds selected for further investigation were progressed to a five-dose assay across the concentration ranges of 0.01, 0.1, 1, 10 and 100 µM [72]. The endpoints assessed in the screening protocol were GI50, TGI and LC50 [72].

[1] = tested on: HG-3 and PGA-1 cell lines; experiment: alamarBlue cell viability assay, mean of both CLL cell lines; type: cell-based, human; details: mean of HG-3 and PGA-1
leukemia cell panel = experiment: NCI-60 five-dose assay, leukemia cell panel mean; type: cell-based, human; details: mean across the six leukemia cell lines
M14 = experiment: NCI-60 five-dose assay; type: cell-based, human
Protocol: as §1

SK-MEL-5 = experiment: NCI-60 five-dose assay; type: cell-based, human
Protocol: as §1

UACC-257 = experiment: NCI-60 five-dose assay; type: cell-based, human
Protocol: as §1

NCI-H552 = experiment: NCI-60 five-dose assay; type: cell-based, human
Protocol: as §1

A498 = experiment: NCI-60 five-dose assay; type: cell-based, human
Protocol: as §1

MDA-MB-231/ATCC = experiment: NCI-60 five-dose assay; type: cell-based, human
Protocol: as §1

HOP-62 = experiment: NCI-60 five-dose assay; type: cell-based, human
Protocol: as §1

SK-MEL-28 = experiment: NCI-60 five-dose assay; type: cell-based, human
Protocol: as §1

CAKI-1 = experiment: NCI-60 five-dose assay; type: cell-based, human
Protocol: as §1

HCT-15 = experiment: NCI-60 five-dose assay; type: cell-based, human
Protocol: as §1

SNB-19 = experiment: NCI-60 five-dose assay; type: cell-based, human
Protocol: as §1

MDA-MB-435 = experiment: NCI-60 five-dose assay; type: cell-based, human
Protocol: as §1

A549/ATCC = experiment: NCI-60 five-dose assay; type: cell-based, human
Protocol: as §1

SN12C = experiment: NCI-60 five-dose assay; type: cell-based, human
Protocol: as §1

NCI-H226 = experiment: NCI-60 five-dose assay; type: cell-based, human
Protocol: as §1

SK-MEL-2 = experiment: NCI-60 five-dose assay; type: cell-based, human
Protocol: as §1

HCT-2998 = experiment: NCI-60 five-dose assay; type: cell-based, human
Protocol: as §1

LOX IMV1 = experiment: NCI-60 five-dose assay; type: cell-based, human
Protocol: as §1

U251 = experiment: NCI-60 five-dose assay; type: cell-based, human
Protocol: as §1

HS 578T = experiment: NCI-60 five-dose assay; type: cell-based, human
Protocol: as §1

IGROV1 = experiment: NCI-60 five-dose assay; type: cell-based, human
Protocol: as §1

NCI-H332M = experiment: NCI-60 five-dose assay; type: cell-based, human
Protocol: as §1

HCT-116 = experiment: NCI-60 five-dose assay; type: cell-based, human
Protocol: as §1

TK-10 = experiment: NCI-60 five-dose assay; type: cell-based, human
Protocol: as §1

SK-OV-3 = experiment: NCI-60 five-dose assay; type: cell-based, human
Protocol: as §1

SF539 = experiment: NCI-60 five-dose assay; type: cell-based, human
Protocol: as §1

EKVX = experiment: NCI-60 five-dose assay; type: cell-based, human
Protocol: as §1

OVCAR-3 = experiment: NCI-60 five-dose assay; type: cell-based, human
Protocol: as §1

NCI/ADR-RES = experiment: NCI-60 five-dose assay; type: cell-based, human
Protocol: as §1

COLO205 = experiment: NCI-60 five-dose assay; type: cell-based, human
Protocol: as §1

OVCAR-4 = experiment: NCI-60 five-dose assay; type: cell-based, human
Protocol: as §1

HT29 = experiment: NCI-60 five-dose assay; type: cell-based, human; details: HT29
Protocol: as §1

DU-145 = experiment: NCI-60 five-dose assay; type: cell-based, human
Protocol: as §1

KM12 = experiment: NCI-60 five-dose assay; type: cell-based, human
Protocol: as §1

HOP-92 = experiment: NCI-60 five-dose assay; type: cell-based, human
Protocol: as §1

NCI-H460 = experiment: NCI-60 five-dose assay; type: cell-based, human
Protocol: as §1

PC-3 = experiment: NCI-60 five-dose assay; type: cell-based, human
Protocol: as §1

MALME-3M = experiment: NCI-60 five-dose assay; type: cell-based, human
Protocol: as §1

UACC-62 = experiment: NCI-60 five-dose assay; type: cell-based, human
Protocol: as §1

RXF 393 = experiment: NCI-60 five-dose assay; type: cell-based, human
Protocol: as §1

SW-620 = experiment: NCI-60 five-dose assay; type: cell-based, human
Protocol: as §1

PGA-1 cells = experiment: alamarBlue cell viability assay; details: for pIC50: read-out: PGA-1 IC50
K-562 = experiment: NCI-60 five-dose assay; type: cell-based, human
melanoma cell lines = experiment: NCI-60 five-dose assay, melanoma cell lines; type: cell-based, human; details: range over melanoma cell lines
Protocol: as §1

[2] = tested on: NCI 60 cancer cell line panel; experiment: NCI-60 five-dose assay, full-panel means; type: cell-based; details: for GI50: read-out: Mean GI50 (MID GI50, full-panel mean-graph mid-point)
Protocol: as §1

[3] = mean over NCI 60 cell line panel

SMILES: O=C(/C=C/C12c3ccccc3C(c3ccccc31)C1C(=O)NC(=O)C12)c1ccc(F)cc1 (racemic) [Compound 23h]
- GI50 (breast cancer cell lines; Homo sapiens): 885 to 1880 nM
- pIC50 ([1]; Homo sapiens, CLL cell): 5.42
- GI50 (leukemia cell panel; Homo sapiens): 1000 nM
- GI50 (M14; Homo sapiens): 2140 nM
- GI50 (SK-MEL-5; Homo sapiens): 1950 nM
- GI50 (UACC-257; Homo sapiens): 2130 nM
- GI50 (NCI-H552; Homo sapiens): 1740 nM
- GI50 (A498; Homo sapiens): 1160 nM
- GI50 (MDA-MB-231/ATCC; Homo sapiens): 1640 nM
- GI50 (HOP-62; Homo sapiens): 2450 nM
- GI50 (SK-MEL-28; Homo sapiens): 1980 nM
- GI50 (CAKI-1; Homo sapiens): 1020 nM
- GI50 (HCT-15; Homo sapiens): 1190 nM
- GI50 (SNB-19; Homo sapiens): 2680 nM
- GI50 (MDA-MB-435; Homo sapiens): 1930 nM
- GI50 (A549/ATCC; Homo sapiens): 2370 nM
- GI50 (SN12C; Homo sapiens): 2340 nM
- GI50 (NCI-H226; Homo sapiens): 2040 nM
- GI50 (SK-MEL-2; Homo sapiens): 2480 nM
- GI50 (HCT-2998; Homo sapiens): 1700 nM
- GI50 (LOX IMV1; Homo sapiens): 1650 nM
- GI50 (U251; Homo sapiens, U-251): 1840 nM
- GI50 (HS 578T; Homo sapiens): 1820 nM
- GI50 (IGROV1; Homo sapiens, IGROV-1): 2100 nM
- GI50 (NCI-H332M; Homo sapiens): 2640 nM
- GI50 (HCT-116; Homo sapiens): 537 nM
- GI50 (TK-10; Homo sapiens): 3180 nM
- GI50 (SK-OV-3; Homo sapiens): 5280 nM
- GI50 (SF539; Homo sapiens, SF-539): 1690 nM
- GI50 (EKVX; Homo sapiens): 1850 nM
- GI50 (OVCAR-3; Homo sapiens): 1440 nM
- GI50 (NCI/ADR-RES; Homo sapiens): 2160 nM
- GI50 (COLO205; Homo sapiens, COLO 205): 1790 nM
- GI50 (OVCAR-4; Homo sapiens): 1960 nM
- GI50 (HT29; Homo sapiens, HT-29): 1860 nM
- GI50 (DU-145; Homo sapiens): 1770 nM
- GI50 (KM12; Homo sapiens): 2180 nM
- GI50 (HOP-92; Homo sapiens): 1330 nM
- GI50 (NCI-H460; Homo sapiens): 1640 nM
- GI50 (PC-3; Homo sapiens): 1420 nM
- GI50 (MALME-3M; Homo sapiens, Malme-3M): 1600 nM
- GI50 (UACC-62; Homo sapiens): 1660 nM
- GI50 (RXF 393; Homo sapiens): 1270 nM
- GI50 (SW-620; Homo sapiens): 2270 nM
- pIC50 (PGA-1 cells; Homo sapiens, 24 h): 5.54
- viability at 10 µM (PGA-1 cells; Homo sapiens, 24 h, read-out: cell viability): 9%
- GI50 (K-562; Homo sapiens, K562, K-562): 1420 nM
- GI50 (K-562; K-562): 1550 nM
- GI50 (melanoma cell lines; Homo sapiens): 1600 to 2480 nM
- GI50 ([2]; Homo sapiens, mean over NCI 60 cell line panel): 1700 nM
- CC50 ([2]; Homo sapiens, mean over NCI 60 cell line panel, read-out: Mean LC50 (MID LC50)): 14400 nM
- Mean TGI (MID TGI, total growth inhibition) [2, 3]: 4265 nM

SMILES: O=C(/C=C/C12c3ccccc3C(c3ccccc31)C1C(=O)NC(=O)C12)c1ccc(Cl)cc1 (racemic) [Compound 23l, (E)-9-(3-(4-Chlorophenyl)-3-oxoprop-1-en-1-yl)-9,10-dihydro-9,10-[3,4]epipyrroloanthracene-12,14-dione]
- GI50 (breast cancer cell lines): 1340 to 1940 nM
- pIC50 [1]: 5.57
- GI50 (leukemia cell panel): 1770 nM
- GI50 (M14): 1650 nM
- GI50 (SK-MEL-5): 1700 nM
- GI50 (UACC-257): 1560 nM
- GI50 (NCI-H552): 1460 nM
- GI50 (A498): 1280 nM
- GI50 (MDA-MB-231/ATCC): 1880 nM
- GI50 (HOP-62): 1690 nM
- GI50 (SK-MEL-28): 1800 nM
- GI50 (CAKI-1): 1240 nM
- GI50 (HCT-15): 1470 nM
- GI50 (SNB-19): 1580 nM
- GI50 (MDA-MB-435): 1680 nM
- GI50 (A549/ATCC): 2400 nM
- GI50 (SN12C): 1560 nM
- GI50 (NCI-H226): 1920 nM
- GI50 (SK-MEL-2): 1810 nM
- GI50 (HCT-2998): 1690 nM
- GI50 (LOX IMV1): 1600 nM
- GI50 (U251): 1520 nM
- GI50 (HS 578T): 1940 nM
- GI50 (IGROV1): 1670 nM
- GI50 (NCI-H332M): 1420 nM
- GI50 (HCT-116): 1230 nM
- GI50 (TK-10): 1920 nM
- GI50 (SK-OV-3): 1850 nM
- GI50 (SF539): 1510 nM
- GI50 (EKVX): 1430 nM
- GI50 (OVCAR-3): 1630 nM
- GI50 (NCI/ADR-RES): 1770 nM
- GI50 (COLO205): 1910 nM
- GI50 (OVCAR-4): 1420 nM
- GI50 (HT29): 2270 nM
- GI50 (DU-145): 1670 nM
- GI50 (KM12): 2140 nM
- GI50 (HOP-92): 1320 nM
- GI50 (NCI-H460): 1800 nM
- GI50 (PC-3): 1390 nM
- GI50 (MALME-3M; MALME-3M): 1510 nM
- GI50 (UACC-62): 1400 nM
- GI50 (RXF 393): 1200 nM
- GI50 (SW-620): 1890 nM
- pIC50 (PGA-1 cells; PGA-1, 24 h): 5.49
- GI50 (K-562; K-562): 1990 nM
- GI50 (melanoma cell lines): 1400 to 1810 nM
- CC50 [2]: 13200 nM
- Mean TGI (MID TGI, total growth inhibition) [2, 3]: 4265 nM
- GI50 [2, 3]: 1620 nM
